# Experimental data: ChEMBL document CHEMBL3600310 (J Med Chem, 2015)
# Calls of active or inactive are those of the source. The rule behind the calls is not given here.
# Columns and labels:
# [1] = target: T1, DNA topoisomerase 1 (Homo sapiens) (UniProt P11387); test: Inhibition of Top1 (unknown origin)-mediated pBR322 DNA cleavage using ethidium bromide staining at 200 uM after 15 mins by electrophoresis analysis
# T1 sequence (whole entry): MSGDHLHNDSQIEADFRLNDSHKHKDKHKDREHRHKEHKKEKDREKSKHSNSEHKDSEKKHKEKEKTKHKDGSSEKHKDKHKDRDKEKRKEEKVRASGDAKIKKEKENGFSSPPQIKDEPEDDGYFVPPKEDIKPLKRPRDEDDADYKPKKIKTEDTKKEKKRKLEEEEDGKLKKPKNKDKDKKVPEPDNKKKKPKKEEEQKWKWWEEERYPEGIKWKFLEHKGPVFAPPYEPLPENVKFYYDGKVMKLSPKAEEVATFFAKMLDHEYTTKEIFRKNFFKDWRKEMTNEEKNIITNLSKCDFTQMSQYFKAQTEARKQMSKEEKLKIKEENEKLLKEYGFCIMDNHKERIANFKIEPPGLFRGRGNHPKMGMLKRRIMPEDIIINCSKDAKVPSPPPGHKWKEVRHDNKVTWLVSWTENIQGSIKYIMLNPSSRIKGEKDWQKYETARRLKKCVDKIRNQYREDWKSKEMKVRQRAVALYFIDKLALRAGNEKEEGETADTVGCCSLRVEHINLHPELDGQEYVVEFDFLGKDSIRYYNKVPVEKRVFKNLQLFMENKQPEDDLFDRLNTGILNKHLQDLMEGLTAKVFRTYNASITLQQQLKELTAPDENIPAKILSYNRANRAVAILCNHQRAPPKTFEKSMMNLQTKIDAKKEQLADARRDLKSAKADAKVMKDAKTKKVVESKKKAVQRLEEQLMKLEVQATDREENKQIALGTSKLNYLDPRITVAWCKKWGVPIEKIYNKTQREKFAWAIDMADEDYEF
# [2] = test system: MDA-MB-435; test: Cytotoxicity against human MDA-MB-435 cells after 72 hrs by MTT assay; type: functional, cell-based; conditions: MDA-MB-435, 72 h
# [3] = test system: A549; test: Cytotoxicity against human A549 cells after 72 hrs by MTT assay; type: functional, cell-based; conditions: A549, 72 h
# [4] = test system: HCT-116; test: Cytotoxicity against human HCT116 cells after 72 hrs by MTT assay; type: functional, cell-based; conditions: HCT-116, 72 h
# [5] = target: DNA topoisomerase 2-alpha (Homo sapiens) (UniProt P11388); test: Inhibition of Top2alpha (unknown origin)-mediated pBR322 DNA cleavage using ethidium bromide staining at 100 uM after 30 mins by electrophoresis analysis
# DNA topoisomerase 2-alpha (Homo sapiens), sequence (P11388 whole entry): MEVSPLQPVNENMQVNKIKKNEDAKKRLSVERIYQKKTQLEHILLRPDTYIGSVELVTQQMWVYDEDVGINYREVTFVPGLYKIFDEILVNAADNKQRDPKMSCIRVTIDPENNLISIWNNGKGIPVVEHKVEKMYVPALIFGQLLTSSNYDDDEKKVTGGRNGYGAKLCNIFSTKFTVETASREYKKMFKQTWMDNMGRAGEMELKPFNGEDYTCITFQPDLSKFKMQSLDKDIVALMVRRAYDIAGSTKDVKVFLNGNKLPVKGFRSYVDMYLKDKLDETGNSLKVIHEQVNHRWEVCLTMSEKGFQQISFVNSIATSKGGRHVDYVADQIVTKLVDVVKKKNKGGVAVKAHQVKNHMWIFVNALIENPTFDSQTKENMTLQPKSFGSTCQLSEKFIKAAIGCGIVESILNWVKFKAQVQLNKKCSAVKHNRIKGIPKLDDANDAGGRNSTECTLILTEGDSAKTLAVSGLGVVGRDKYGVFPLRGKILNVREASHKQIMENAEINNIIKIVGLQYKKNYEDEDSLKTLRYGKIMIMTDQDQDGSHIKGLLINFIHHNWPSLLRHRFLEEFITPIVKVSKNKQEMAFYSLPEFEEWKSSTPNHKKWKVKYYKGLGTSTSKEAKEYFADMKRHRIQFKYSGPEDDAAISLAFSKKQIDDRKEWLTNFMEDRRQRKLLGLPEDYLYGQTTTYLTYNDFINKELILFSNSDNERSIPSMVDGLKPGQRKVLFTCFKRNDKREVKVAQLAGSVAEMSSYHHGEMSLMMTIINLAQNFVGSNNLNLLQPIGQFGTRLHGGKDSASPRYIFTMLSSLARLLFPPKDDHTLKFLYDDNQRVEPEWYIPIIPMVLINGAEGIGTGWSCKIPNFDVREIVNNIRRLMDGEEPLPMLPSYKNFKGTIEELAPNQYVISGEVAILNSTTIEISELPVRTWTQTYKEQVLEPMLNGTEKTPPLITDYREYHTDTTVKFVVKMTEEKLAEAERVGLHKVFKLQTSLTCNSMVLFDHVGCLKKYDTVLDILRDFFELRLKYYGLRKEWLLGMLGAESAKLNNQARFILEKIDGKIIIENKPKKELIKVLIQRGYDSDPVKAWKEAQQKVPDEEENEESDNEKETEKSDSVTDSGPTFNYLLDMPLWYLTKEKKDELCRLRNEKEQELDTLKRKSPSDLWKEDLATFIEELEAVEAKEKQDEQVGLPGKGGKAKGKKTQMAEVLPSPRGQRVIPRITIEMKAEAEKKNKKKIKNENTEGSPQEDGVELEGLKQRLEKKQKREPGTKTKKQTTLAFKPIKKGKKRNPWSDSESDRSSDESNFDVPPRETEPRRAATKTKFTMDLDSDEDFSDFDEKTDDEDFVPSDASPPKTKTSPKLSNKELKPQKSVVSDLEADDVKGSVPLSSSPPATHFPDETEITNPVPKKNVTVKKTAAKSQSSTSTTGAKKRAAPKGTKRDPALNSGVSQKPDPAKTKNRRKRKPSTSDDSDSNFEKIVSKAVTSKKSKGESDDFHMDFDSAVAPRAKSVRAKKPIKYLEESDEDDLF
# [6] = target: T1, DNA topoisomerase 1 (Homo sapiens); test: Inhibition of Top1 (unknown origin)-mediated pBR322 DNA cleavage using ethidium bromide staining at 50 uM after 15 mins by electrophoresis analysis
# [7] = target: T1, DNA topoisomerase 1 (Homo sapiens); test: Inhibition of Top1 (unknown origin)-mediated pBR322 DNA cleavage using ethidium bromide staining at 100 uM after 15 mins by electrophoresis analysis
# [8] = test system: A549; test: Antitumor activity against human A549 cells xenografted in BALB/C mouse assessed as tumor growth inhibition at 2 mg/kg, ip for 5 days; type: functional, organism-based
# [9] = Cytotoxicity against human Bel7404 cells after 72 hrs by MTT assay; type: functional, cell-based; conditions: BEL-7404, 72 h
# [10] = test system: K562; test: Cytotoxicity against human K562 cells after 72 hrs by MTT assay; type: functional, cell-based; conditions: K562, 72 h
# [11] = test system: PC-3; test: cells; conditions: Homo sapiens, PC-3, 72 h
# Description: Cytotoxicity against human PC3 cells after 72 hrs by MTT assay
# [12] = test system: A549; test: Cell cycle arrest in human A549 cells assessed as accumulation at G2/M phase using propidium iodide staining at 5 uM after 36 hrs by flow cytometry analysis; type: functional
# [13] = Cytotoxicity against human SW579 cells after 72 hrs by MTT assay; type: functional, cell-based; conditions: SW579, 72 h
# [14] = test system: NCI-H446; test: Cytotoxicity against human NCI-H446 cells after 72 hrs by MTT assay; type: functional, cell-based; conditions: NCI-H446, 72 h
# [15] = test system: A549; test: Induction of apoptosis in human A549 cells assessed as apoptotic cells at 5 uM after 48 hrs by flow cytometry analysis; type: functional
# [16] = Cytotoxicity against human MV-3 cells after 72 hrs by MTT assay; type: functional, cell-based; conditions: MV-3, 72 h
# [17] = target: Tubulin (Homo sapiens) (UniProt P68371+Q9H4B7+P0DPH7+P68366+Q13509+Q71U36+P04350+Q3ZCM7+P07437+P68363+Q9BQE3+Q6PEY2+Q13885+Q9BVA1+Q9BUF5); test: Inhibition of brain tubulin (unknown origin) polymerization at 5 uM measured up to 15 to 30 mins
# [18] = test system: Mus musculus; test: Toxicity in human A549 cells xenografted BALB/C mouse assessed as mortality at 2 mg/kg, ip for 5 days; type: organism-based; conditions: in vivo, 120 h
# [19] = target: Tubulin; test: Inhibition of brain tubulin (unknown origin) polymerization measured up to 15 to 30 mins; parameters: species or system Homo sapiens
# [20] = Cytotoxicity against human SKHEP1 cells after 72 hrs by MTT assay; type: functional, cell-based; conditions: SK-HEP1, 72 h
# [21] = test system: A549; test: Induction of apoptosis in human A549 cells assessed as change in cell morphology at 5 uM after 36 hrs by light microscope analysis; type: functional, cell-based
# [22] = test system: A549; test: Cell cycle arrest in human A549 cells assessed as accumulation at G2/M phase using propidium iodide staining at 5 uM after 12 hrs by flow cytometry analysis; type: functional, cell-based
# [23] = test system: HCT-116; test: Antitumor activity against human HCT116 cells xenografted in BALB/C mouse assessed as tumor growth inhibition at 2 mg/kg, ip for 5 days; type: functional, organism-based
# [24] = test system: Mus musculus; test: Toxicity in human A549 cells xenografted BALB/C mouse assessed as change in body weight at 2 mg/kg, ip for 5 days; type: organism-based; conditions: in vivo, 120 h
Compound,inhibition [1],inhibition [5],inhibition [6],inhibition [7],IC50 [2],IC50 [3],IC50 [4],further results
O=C1c2ccccc2OC2c3[nH]c4ccc(O)cc4c3CCN12 (centres undefined),Active,inactive,,,1.4 µM,4 µM,2.3 µM,
COc1ccc2[nH]c3c(c2c1)CCN1C(=O)c2ccccc2S(=O)(=O)C31 (centres undefined),Active,Active,Active,Active,> 200 µM,> 200 µM,> 200 µM,
O=C1c2cc(F)ccc2SC2c3[nH]c4ccccc4c3CCN12 (centres undefined),,,Active,Active,> 200 µM,> 200 µM,> 200 µM,
O=C1c2ccccc2S(=O)(=O)C2c3[nH]c4ccccc4c3CCN12 (centres undefined),,,Active,Active,> 200 µM,> 200 µM,> 200 µM,
Nc1ccc2c(c1)C(=O)N1CCc3c([nH]c4ccc(O)cc34)C1O2 (centres undefined),Active,inactive,,,0.6 µM,29.1 µM,0.5 µM,
O=C1c2cc(Cl)ccc2OC2c3[nH]c4ccc(O)cc4c3CCN12 (centres undefined),Active,inactive,,,0.06 µM,5.2 µM,< 0.003 µM,growth inhibition (GI) [8]: Active; IC50 [9]: < 0.003 µM; IC50 [10]: < 0.003 µM; IC50 [11]: 0.4 µM; Activity [12]: 63.7%; IC50 [13]: 5.56 µM; IC50 [14]: > 200 µM; Activity [15]: 6.7%; IC50 [16]: 1.1 µM; inhibition [17]: 48%; Activity [18]: Non-toxic; IC50 [19]: 5.3 µM; IC50 [20]: 1.8 µM; Activity [21]: Active; Activity [22]: Active; growth inhibition (GI) [23]: Active; Activity [24]: Non-toxic
O=C1c2ccccc2S(=O)(=O)C2c3[nH]c4ccc(O)cc4c3CCN12 (centres undefined),,inactive,,,> 200 µM,> 200 µM,46 µM,
O=C1c2ccccc2SC2c3[nH]c4ccccc4c3CCN12 (centres undefined),Active,inactive,Active,Active,,,,
O=C1c2cccnc2SC2c3[nH]c4ccccc4c3CCN12 (centres undefined),,,Active,Active,> 200 µM,> 200 µM,> 200 µM,
CCC1=C[C@@H]2CN(C1)Cc1c([nH]c3ccccc13)[C@@](C(=O)OC)(c1cc3c(cc1OC)N(C)[C@H]1[C@@](O)(C(=O)OC)[C@H](OC(C)=O)[C@]4(CC)C=CCN5CC[C@]31[C@@H]54)C2 [VINORELBINE],,,,,,,,IC50 [19]: 2 µM
CC[C@@]1(O)C(=O)OCc2c1cc1n(c2=O)Cc2cc3ccccc3nc2-1 [CAMPTOTHECIN],,,,,1 µM,0.1 µM,0.09 µM,IC50 [9]: 0.14 µM; IC50 [10]: < 0.003 µM; IC50 [11]: 2.5 µM; IC50 [13]: 0.71 µM; IC50 [14]: > 200 µM; IC50 [16]: < 0.003 µM; IC50 [20]: 0.96 µM
Cc1ccc2c(c1)OC1c3[nH]c4ccc(O)cc4c3CCN1C2=O (centres undefined),,,,,< 0.003 µM,6.5 µM,< 0.003 µM,growth inhibition (GI) [8]: Active; Activity [18]: Non-toxic; Activity [24]: Non-toxic
O=C1c2ccccc2SC2c3[nH]c4ccc(O)cc4c3CCN12 (centres undefined),Active,inactive,,,< 0.003 µM,0.05 µM,0.04 µM,growth inhibition (GI) [8]: Active; Activity [12]: 68.2%; Activity [15]: 6%; Activity [18]: Non-toxic; Activity [21]: Active; Activity [22]: Active; growth inhibition (GI) [23]: Active; Activity [24]: Non-toxic
O=C1c2cc(O)ccc2OC2c3[nH]c4ccccc4c3CCN12 (centres undefined),,,,,11.5 µM,16.2 µM,1.9 µM,

# The next lines start with results.
inhibition [1],inhibition [5],inhibition [6],inhibition [7],Compound,IC50 [2],IC50 [3],IC50 [4],further results
,,Active,Active,O=C1c2cc(Cl)ccc2SC2c3[nH]c4ccccc4c3CCN12 (centres undefined),38.8 µM,2.1 µM,29.1 µM,
,,Active,Active,COc1ccc2[nH]c3c(c2c1)CCN1C(=O)c2cc(F)ccc2SC31 (centres undefined),3.9 µM,1.2 µM,6.5 µM,
,,Active,Active,COc1ccc2[nH]c3c(c2c1)CCN1C(=O)c2cc(Cl)ccc2SC31 (centres undefined),44.1 µM,2.3 µM,2.7 µM,
Active,inactive,Active,Active,COc1ccc2c(c1)C(=O)N1CCc3c([nH]c4ccc(O)cc34)C1S2 (centres undefined),< 0.003 µM,0.3 µM,< 0.003 µM,IC50 [9]: < 0.003 µM; IC50 [10]: < 0.003 µM; IC50 [11]: 0.43 µM; IC50 [13]: 7.3 µM; IC50 [14]: > 200 µM; IC50 [16]: 1.2 µM; IC50 [20]: 2.2 µM
,,Active,Active,O=C1c2cc(F)ccc2SC2c3[nH]c4ccc(O)cc4c3CCN12 (centres undefined),< 0.003 µM,1.2 µM,< 0.003 µM,
,,Active,Active,COc1ccc2[nH]c3c(c2c1)CCN1C(=O)c2cc(Br)ccc2SC31 (centres undefined),84.7 µM,8.2 µM,2.7 µM,
,,Active,Active,COc1ccc2c(c1)C(=O)N1CCc3c([nH]c4ccc(OC)cc34)C1S2 (centres undefined),122 µM,11.3 µM,20 µM,
Active,Active,Active,Active,O=C1c2cc(Cl)ccc2SC2c3[nH]c4ccc(O)cc4c3CCN12 (centres undefined),< 0.003 µM,0.02 µM,< 0.003 µM,IC50 [9]: < 0.003 µM; IC50 [10]: < 0.003 µM; IC50 [11]: 0.37 µM; IC50 [13]: 6.9 µM; IC50 [14]: > 200 µM; IC50 [16]: 1.3 µM; inhibition [17]: 63%; IC50 [19]: 4.5 µM; IC50 [20]: 2.1 µM; growth inhibition (GI) [23]: Active
Active,Active,,,O=C1c2cc(O)ccc2OC2c3[nH]c4ccc(O)cc4c3CCN12 (centres undefined),0.8 µM,3.8 µM,1.2 µM,IC50 [9]: 0.06 µM; IC50 [10]: < 0.003 µM; IC50 [11]: 0.84 µM; IC50 [13]: 5.15 µM; IC50 [14]: > 200 µM; IC50 [16]: 1.2 µM; IC50 [20]: 1.1 µM; growth inhibition (GI) [23]: Active
Active,Active,Active,Active,O=C1c2cc(O)ccc2SC2c3[nH]c4ccc(O)cc4c3CCN12 (centres undefined),< 0.003 µM,0.7 µM,< 0.003 µM,IC50 [9]: < 0.003 µM; IC50 [10]: < 0.003 µM; IC50 [11]: < 0.003 µM; IC50 [13]: 3.5 µM; IC50 [14]: 16.6 µM; IC50 [16]: 0.14 µM; IC50 [20]: 0.49 µM; growth inhibition (GI) [23]: Active
